This note sets out measurements from patent US20260327243A1, “SPIRO-HETEROCYCLIC INHIBITORS OF KRAS G12C MUTANT PROTEINS AND USES THEREOF” (AMGEN INC., priority 2023, published 2026).

One experiment has as its target KRAS^G12C (Homo sapiens, UniProt P01116, C118A/G12C). As to the kind of experiment: Coupled Nucleotide Exchange Assay. It counts as biochemical. As to conditions: GDP-bound KRAS (aa 1-169) G12C/C118A; 2 h compound pre-incubation; SOS-mediated exchange, 30 min; cRAF binding (AlphaLISA). Summed up:
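GDP-bound His-tagged KRAS aa 1-169 (G12C/C118A) pre-incubated 2 h with compound in 25 mM HEPES pH 7.4, 10 mM MgCl2, 0.01% Triton X-100 (±0.1% BSA), then SOS (aa 564-1049) plus GTP added for 30 min. GST-cRAF RBD binding read by AlphaLISA; DMSO-normalized, 4-parameter fit gives IC50.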

For another experiment, the system named is A549 cells. As to the kind of experiment: Cell Viability Assay, A549. It counts as cell-based. As to conditions: human lung carcinoma, 72 h, CellTiter-Glo. Here is the method: (§1) MIA PaCa-2 (human pancreatic carcinoma; ATCC CRL-1420) or A549 (human lung carcinoma; ATCC CCL-185) cells were cultured in RPMI 1640 medium containing 10% fetal bovine serum and 1×penicillin/streptomycin/L-glutamine. Cells were seeded in 384-well plates at a density of 1.67E+04 cells/mL and incubated at 37° C., 5% CO2, overnight. Serially-diluted compound or DMSO was added to the cells, and plates were incubated at 37° C., 5% CO2 for 72 h. Cell viability was measured using a CellTiter-Glo® Luminescent Cell Viability Assay kit (Promega) according to the manufacturer's protocol. The luminescence signal of treated samples was normalized to DMSO control, and data were analyzed using a 4-parameter logistic model to calculate IC50 values.
(§2) The following data (Table 3) categorizes the IC50 of each compound for inhibiting enzymatic activity of KRAS^G12C in the indicated cells.

A further experiment concerns MIA PaCa-2 cells. As to the kind of experiment: Cell Viability Assay, MIA PaCa-2. It counts as cell-based. As to conditions: human pancreatic carcinoma, CellTiter-Glo. The method, then: as §1, §2

Chain of KRAS^G12C (P01116 1-169 isoform P01116-2 G12C/C118A): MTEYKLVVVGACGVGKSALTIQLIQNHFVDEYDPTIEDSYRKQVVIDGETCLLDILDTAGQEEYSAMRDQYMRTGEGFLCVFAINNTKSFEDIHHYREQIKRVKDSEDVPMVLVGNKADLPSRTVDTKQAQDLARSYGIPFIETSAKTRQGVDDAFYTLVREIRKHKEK

As to `C=CC(=O)N1CCN(C2CN(c3cc(N4CCC5(CC4)c4ccccc4CN5C)nc(C(F)(F)F)c3C#N)C2)CC1` [Compound 3-014], the IC50 was 498 nM on KRAS^G12C; above 5000 nM with A549 cells (A549); 694 nM with MIA PaCa-2 cells (Homo sapiens, MIA PaCa-2, 72 h).
For `C=CC(=O)N1CCN([C@@H]2CN(c3cc(N4CCC5(OCC=C5C)C(C)C4)nc(C(F)(F)F)n3)[C@@H]2C)CC1` (relative stereo) [Compound 3-060, 1-(4-((2R,3R)-1-(6-((5R,6S)-4,6-Dimethyl-1-oxa-8-azaspiro[4.5]dec-3-en-8-yl)-2-(trifluoromethyl)pyrimidin-4-yl)-2-methylazetidin-3-yl)piperazin-1-yl) prop-2-en-1-one], the IC50 on KRAS^G12C is 406 nM; with A549 cells (A549) it was above 5000 nM; with MIA PaCa-2 cells (Homo sapiens, MIA PaCa-2, 72 h), 1090 nM.
As to `C=CC(=O)N1CCN([C@@H]2CN(c3cc(N4CCC5(CC4)OC4(COC4)c4nccc(C)c45)nc(C(F)(F)F)n3)[C@@H]2C)CC1` [Compound 3-102, 1-(4-((2R,3R)-2-methyl-1-(6-(4′-methyl-1″H-dispiro[oxetane-3,7′-furo[3,4-b]pyridine-5′.4″-piperidin]-1″- yl)-2-(trifluoromethyl)-4-pyrimidinyl)-3-azetidinyl)-1-piperazinyl)-2-propen-1-one], the IC50 was 23 nM at KRAS^G12C; above 5000 nM in the experiment on A549 cells (A549); 77 nM in the experiment with MIA PaCa-2 cells (Homo sapiens, MIA PaCa-2, 72 h).
The matching figures for `C=CC(=O)N1CCN(C2CN(c3cc(N4CCC5(CC4)CC(Br)=NO5)nc(C(F)(F)F)c3C#N)C2)CC1` [Compound 3-017, 4-(3-(4-acryloylpiperazin-1-yl)-azetidin-1-yl)-6-(3-bromo-1-oxa-2.8-diazaspiro[4.5]dec-2-en-8-yl)-2-(trifluoromethyl)nicotinonitrile]: 828 nM, above 5000 nM and 1990 nM.
With `C=CC(=O)N1CCN([C@@H]2CN(c3cc(N4CC[C@]5(C[C@H]4C)OC[C@@H](CO)n4ncc(C)c45)nc(C(F)(F)F)n3)[C@@H]2C)CC1` (single isomer, unassigned) [Compound 3-087-1], the IC50 at KRAS^G12C is 48 nM; with A549 cells (A549) it was above 5000 nM; in the experiment with MIA PaCa-2 cells (Homo sapiens, MIA PaCa-2, 72 h) it was 78 nM.
On to `C=CC(=O)N1CCN(C2CN(c3cc(N4CCC5(CC4)OC(C)C=C5C)nc(C(F)(F)F)c3C#N)C2)CC1` (single isomer, unassigned) [Compound 3-054-1], for which the IC50 was 128 nM on KRAS^G12C, above 5000 nM in the experiment with A549 cells (A549) and 603 nM with MIA PaCa-2 cells (72 h).
Consider `C=CC(=O)N1CCN([C@@H]2CN(c3cc(N4CCC5(CC4)c4c(C)ccnc4C4(COC4)C5F)nc(C(F)(F)F)n3)[C@@H]2C)CC1` (stereo partly drawn) [Compound 3-093, 1-(4-((2R,3R)-1-(6-(6′-fluoro-4′-methyl-1″H-dispiro[oxetane-3,7′-cyclopenta[b]pyridine-5′,4″- piperidin]-1″-yl)-2-(trifluoromethyl)-4-pyrimidinyl)-2-methyl-3-azetidinyl)-1-piperazinyl)-2-propen-1-one], for which the IC50 on KRAS^G12C was 107 nM; in the experiment with A549 cells (A549), above 5000 nM; with MIA PaCa-2 cells (Homo sapiens, MIA PaCa-2, 72 h) it was 271 nM.
Turning to `C=CC(=O)N1CCN([C@@H]2CN(c3cc(N4CCC5(CC4)OC[C@@H](COC)n4ncc(C)c45)nc(C(F)(F)F)n3)[C@@H]2C)CC1` [Compound 3-097, 1-(4-((2R,3R)-1-(6-((7′R)-7′-(methoxymethyl)-3′-methyl-6′,7′-dihydro-1H-spiro[piperidine-4,4′-pyrazolo[5,1-c][1.4]oxazin]-1-yl)-2-(trifluoromethyl)-4-pyrimidinyl)-2-methyl-3-azetidinyl)-1-piperazinyl)-2-propen-1-one], the IC50 was 85 nM on KRAS^G12C; above 5000 nM in the experiment on A549 cells (A549); 226 nM with MIA PaCa-2 cells (Homo sapiens, MIA PaCa-2, 72 h).
As to `C=CC(=O)N1CCN(C2CN(c3cc(N4CCC5(CC4)OC(C)C=C5C)nc(C(F)(F)F)c3C#N)C2)CC1` (single isomer, unassigned) [Compound 3-054-2], the IC50 was 381 nM at KRAS^G12C, above 5000 nM in the experiment with A549 cells and 1490 nM with MIA PaCa-2 cells (72 h).
As for `C=CC(=O)N1CCN(C2CN(c3cc(N4CCC5(CC4)COc4ccccc45)nc(C(F)(F)F)c3C#N)C2)CC1` [Compound 3-015], the IC50 is 669 nM on KRAS^G12C; above 5000 nM in the experiment on A549 cells (A549); 2760 nM with MIA PaCa-2 cells (Homo sapiens, MIA PaCa-2, 72 h).
`C=CC(=O)N1CCN([C@@H]2CN(c3cc(N4CCC5(CC4)OCCc4ncsc45)nc(C(F)(F)F)n3)[C@@H]2C)CC1` [Compound 3-002, 1-(4-((2R,3R)-1-(6-(6′,7′-Dihydrospiro[piperidine-4,4′-pyrano[4,3-d]thiazol]-1-yl)-2-(trifluoromethyl)pyrimidin-4-yl)-2-methylazetidin-3-yl)piperazin-1-yl)prop-2-en-1-one]: the IC50 was 315 nM on KRAS^G12C; above 5000 nM in the experiment with A549 cells (A549); 625 nM with MIA PaCa-2 cells (Homo sapiens, MIA PaCa-2, 72 h).
On to `C=CC(=O)N1CCN([C@@H]2CN(c3cc(N4CC[C@]5(C[C@H]4C)OC4(COC4)c4nccc(C)c45)nc(C(F)(F)F)n3)[C@@H]2C)CC1` [Compound 3-104, 1-(4-((2R,3R)-1-(6-((2″R,5′R)-2″,4′-dimethyl-1″H-dispiro[oxetane-3,7′-furo[3,4-b]pyridine-5′,4″-piperidin]-1″- yl)-2-(trifluoromethyl)-4-pyrimidinyl)-2-methyl-3-azetidinyl)-1-piperazinyl)-2-propen-1-one], for which the IC50 is 21 nM on KRAS^G12C; above 5000 nM in the experiment with A549 cells (A549); 81 nM with MIA PaCa-2 cells (Homo sapiens, MIA PaCa-2, 72 h).
Regarding `C=CC(=O)N1CCN([C@@H]2CN(c3cc(N4CC[C@]5(C[C@H]4C)OCCn4ncc(C)c45)nc(C(F)(F)F)n3)[C@@H]2C)CC1` [Compound 3-077, 1-(4-((2R,3R)-1-(6-((2R,4R)-2,3′-dimethyl-6′,7′-dihydro-1H-spiro[piperidine-4,4′-pyrazolo[5,1-c][1,4]oxazin]-1-yl)-2-(trifluoromethyl)-4-pyrimidinyl)-2-methyl-3-azetidinyl)-1-piperazinyl)-2-propen-1-one], the IC50 on KRAS^G12C was 21 nM; in the experiment on A549 cells (A549), above 5000 nM; with MIA PaCa-2 cells (Homo sapiens, MIA PaCa-2, 72 h), 182 nM.
As for `C=CC(=O)N1CCN(C2CN(c3cc(N4CCC5(CCC(=O)N5C)CC4)nc(C(F)(F)F)c3C#N)C2)CC1` [Compound 3-075, 4-(3-(4-Acryloylpiperazin-1-yl)azetidin-1-yl)-6-(1-methyl-2-oxo-1,8-diazaspiro[4.5]decan-8-yl)-2-(trifluoromethyl)nicotinonitrile], the IC50 at KRAS^G12C is 704 nM; with A549 cells (A549) it was above 5000 nM; in the experiment on MIA PaCa-2 cells (Homo sapiens, MIA PaCa-2, 72 h), 2800 nM.
The matching figures for `C=CC(=O)N1CCN(C2CN(c3cc(N4CCC5(CC4)OCc4ccccc45)nc(C(F)(F)F)c3C#N)C2)CC1` [Compound 3-028, 4-(3-(4-acryloylpiperazin-1-yl)azetidin-1-yl)-6-(3H-spiro[isobenzofuran-1,4′-piperidin]-1′-yl)-2-(trifluoromethyl)nicotinonitrile]: 1790 nM, above 3330 nM and 1340 nM.
With `C=CC(=O)N1CCN([C@@H]2CN(c3cc(N4CCC5(CC4)OCC(CF)n4ncc(C)c45)nc(C(F)(F)F)n3)[C@@H]2C)CC1` (stereo partly drawn) [Compound 3-083, 1-(4-((2R,3R)-1-(6-(7′-(fluoromethyl)-3′-methyl-6′,7′-dihydrospiro[piperidine-4,4′-pyrazolo[5,1-c][1,4]oxazin]-1-yl)-2-(trifluoromethyl)pyrimidin-4-yl)-2-methylazetidin-3-yl)piperazin-1-yl)prop-2-en-1-one], the concentration for half-maximal inhibition (IC50) at KRAS^G12C is 75 nM; in the experiment with A549 cells (A549) it was above 5000 nM; in the experiment with MIA PaCa-2 cells (Homo sapiens, MIA PaCa-2, 72 h), 171 nM.
